Measurements as given in patent publication US4368267A, “Epoxidation of lower α-olefins” (priority 1980, dated 1983).

System: Methylobacter capsulatus Y (NRRL B-11,201)
Assay: Methane hydroxylation and propylene epoxidation by washed cell suspensions
Format: cell-based
Description: The pH of the nutrient medium was adjusted to 7.0 by the addition of acid or base and 50 ml aliquots of the nutrient medium was charged into a plurality of 300 ml shake flasks. The shake flasks were inoculated with an inoculating loop of cells from an agar plate containing homogeneous colonies of the microorganisms on the plate (the purity of the isolates were confirmed by microscopic examination). The isolates had been maintained on agar plates under an atmosphere of methane and air having a 1:1 v/v gas ratio which had been transferred every two weeks. The gaseous phase of the inoculated flasks was then replaced with a gas mixture comprised of methane and air having a ratio of 1:1 on a v/v basis. The inoculated flasks were sealed air tight and were incubated on a rotary shaker of orbital radius 2.5 cm at 250 rpm and at 30° C. for two days until the turbidity in the medium had developed.
The cells were harvested by centrifugation at 10,000 ×g at 4° C. for 30 minutes. The cell pellet was washed twice with a 0.15 M phosphate buffer at a pH of 7.0 (containing 0.002 M MgCl2). The washed cells were then suspended in a 0.15 M phosphate buffer at pH 7.0.
A 0.5 ml aliquot of each washed cell suspension (2 mg cells) was put into 10 ml vials at 4° C. which were sealed with a rubber cap. […] It was then incubated at 30° C. on a rotary shaker at 300 rpm. Samples of product (3 μl) were withdrawn periodically with a microsyringe and the products were analyzed by gas chromatography (ionization flame detector column).
Several experiments were carried out using a plurality of compounds capable of generating the necessary reducing power (NADH2 or NADPH2) required for the epoxidation of alkenes or dienes. […]

SMILES: C=CC [Propylene]
- Conversion rate, propylene to propylene oxide (methane-grown washed cells, 30° C.): 1.5 μmole/hr/mg protein
- Rate of Product Formation (Propylene Oxide) (propylene alone): 2 nmoles/hr/mg protein
